Laboratory results from patent publication US12071431B2, “Pyridin-sulfonamide compounds for the treatment of conditions related to interleukin 1 beta” (ALLINKY BIOPHARMA, priority 2018, dated 2024).

Key:
[1] = tested on: human primary macrophages; experiment: Cell viability assessment (CellTiter-Glo) in the macrophage assay plates; assay type: cell-based; set-up: concentration or dose not given beside the values; conditions: CellTiter-Glo luminescent assay
Method: 2×10^5 PBMCs at a total volume of 200 μL/well were plated into a 96-well plate and incubated for 4 hrs at 37° C. in a CO2 incubator to allow the monocytes to settle, leaving the lymphocytes in suspension. Following incubation, 100 μL were aspirated out of each well to ensure removal of the lymphocyte population. The monocytes were differentiated to macrophages by addition of 200 ng/mL of recombinant human GM-CSF (4 mg/mL stock) and incubated at 37° C./5% CO2 for 6 days. The medium was changed every two days by removing half the volume of medium in the well and re-supplementing with fresh RPMI complete medium and recombinant human GM-CSF. Following differentiation, the cells were treated in duplicates with a compound according to the invention in a total volume of 50 μL, maintaining a final DMSO percentile of 0.5%. The plate was transferred to an incubator maintained at 37° C./5% CO2 for 2 hours. The cells were stimulated with 100 ng/mL of LPS (4×) (1 mg/mL stock) in a total volume of 50 μL. The plate was transferred to an incubator maintained at 37° C./5% CO2 for 16 hours. 100 μl/well volume of CellTiter-Glo® luminescent reagent was added to the assay plates and incubated at room temperature for 30 mins on a plate shaker. Following incubation, the luminescent signal of each well was determined using a microplate reader (Perkin Elmer ENVISION 2104). Cytotoxicity of the test compounds was determined utilizing the following formula: % Cytotoxicity=100−(100*(Average Test Compound Counts−Average Negative Control Counts)/(Average Positive Control Counts−Average Negative Control Counts)) All of the “Counts” stated in this formula are derived from “luminescent signal” determined as described for the cytokine viability assessment.

IL-1β = experiment: In vitro inhibition of IL-1β in human primary macrophages challenged with LPS (ELISA); assay type: cell-based; conditions: Primary macrophage, 2 hours compound pre-treatment, 100 ng/mL LPS, 16 hours, read-out: IC50 (IL-Iβ inhibition)
Method: Example 12—In Vitro Inhibition of IL-1β in Human Primary Macrophages Challenged with LPS
5 mL of RPMI media without serum (1:1) was added to a sample of 5 mL of human whole blood in EDTA or sodium citrate and mixed well by inversion. 3 mL of Histopaque-1077 was added to a 15 mL conical centrifuge tube and brought to room temperature. Using a transfer pipette, 10 mL of the blood-RPMI mixture was carefully layered onto the Histopaque-1077 and was centrifuged at 400×g for exactly 30 minutes at room temperature.
After centrifugation, a pasteur pipette was used to aspirate the upper layer to within 0.5 cm of the opaque interface containing the mononuclear cells. The upper layer was discarded. With a Pasteur pipette, the opaque interface was carefully transferred to a clean conical centrifuge tube. 5 mL RPMI was added to the tube and mixed by inversion, followed by centrifugation at 250×g for exactly 10 minutes. The supernatant was aspirated and discarded.
The leukocyte pellet was re-suspended with 5 mL RPMI and mixed gently with a Pasteur pipette, followed by centrifugation at 250×g for exactly 10 minutes. The pellet was washed 3× with PBS and re-suspended in RPMI medium.
2×10^5 PBMCs at a total volume of 200 μL/well were plated into a 96-well plate and incubated for 4 hrs at 37° C. in a CO2 incubator to allow the monocytes to settle, leaving the lymphocytes in suspension. Following incubation, 100 μL were aspirated out of each well to ensure removal of the lymphocyte population.
The monocytes were differentiated to macrophages by addition of 200 ng/mL of recombinant human GM-CSF (4 mg/mL stock) and incubated at 37° C./5% CO2 for 6 days. The medium was changed every two days by removing half the volume of medium in the well and re-supplementing with fresh RPMI complete medium and recombinant human GM-CSF.
Following differentiation, the cells were treated in duplicates with a compound according to the invention in a total volume of 50 μL, maintaining a final DMSO percentile of 0.5%. The plate was transferred to an incubator maintained at 37° C./5% CO2 for 2 hours. The cells were stimulated with 100 ng/mL of LPS (4×) (1 mg/mL stock) in a total volume of 50 μL.
The plate was transferred to an incubator maintained at 37° C./5% CO2 for 16 hours.
• 1. Each well from a pre-coated ELISA plate was aspirated and washed with wash buffer (0.05% Tween 20 in PBS; pH 7.2-7.4) by filling each well with wash buffer (300 μL). The process was repeated two times for a total of three washes. The liquid was removed completely at each step. After the last wash, any remaining wash buffer was removed. • 2. Plates were blocked by adding 300 μL of block buffer (1% BSA in PBS) to each well and incubated at room temperature for 1 hour. • 3. The aspiration/wash as in step 1 was repeated. • 4. 100 μL of sample or standard prepared in reagent diluent (0.1% BSA, 0.05% Tween 20 in PBS pH7.2-7.4) was added. The wells were covered with an adhesive strip and incubated for 2 hours at room temperature. • 5. The aspiration/wash as in step 1 was repeated. • 6. 100 μL of detection antibody, diluted in reagent diluent, was added to each well. The wells were covered with a new adhesive strip and incubated for 2 hours at room temperature. • 7. The aspiration/wash as in step 1 was repeated. • 8. 100 μL of the working dilution (1:200 from the stock) and streptavidin-HRP was added to each well. The plate was covered and incubated for 20 minutes at room temperature. • 9. 100 μL of substrate solution (1:1 mixture of H2O2 and tetramethylbenzidine) was added to each well and incubated for 20 minutes at room temperature. • 10.50 μL of stop solution (2N H2SO4) was added to each well. The plate was tapped gently to ensure thorough mixing. • 11. The optical density of each well was determined immediately using a microplate reader (Spectramax Plus) set to 450 nm. Cytokine Viability Assessment […]

Question: With `CCOc1ccc(Oc2cc(S(=O)(=O)N(C)C)cnc2N2CCC(Oc3ccc(Cl)cc3)CC2)cc1` [Compound 7] as the compound, how does the Cell viability [1] read?
Answer: 100%

Question: And the IC50 (IL-1β)?
Answer: 27 nM
